Data: patent publication US12213860B2, “Method for separating mammalian sperm, artificial insemination method, and in vitro fertilization method” (Hiroshima University, priority 2017, dated 2025)

Experiments:
Format in all cases: cell-based
bovine sperm [1] = experiment: Percentages of X-sperm and Y-sperm in floating bovine sperm by real-time PCR
Description: A frozen bovine semen provided by the Oita Prefectural Agriculture, Forestry and Fisheries Research Center was used. The frozen sperm were melted, and washed with an albumin-free HTF medium. The bovine sperm were incubated in a medium prepared by adding albumin and a TLR7 ligand to HTF at 37° C., 5% CO2 for 1 hour. The TLR7 ligand used was R-848 or imiquimod R-837 (hereinafter referred to as R-837). The content of R-848 was 0 μM, 0.003 μM, 0.03 μM, 0.3 μM, or 3 μM. The content of R-837 was 0.003 μM, 0.03 μM, 0.3 μM, 3 μM, 30 μM, or 300 μM. Then, after collecting the floating sperm in the upper layer and extracting DNA, the percentages of X-sperm and Y-sperm were determined by real-time PCR.

mouse sperm [2] = experiment: Separation of mouse sperm by hypergravity load (centrifugation) after TLR7 ligand incubation; X-/Y-sperm percentages in upper and lower layer; conditions: R-848 0.3 μM; for percentage of X-sperm in the lower layer of the medium: 30% of the lower layer; for percentage of Y-sperm in the upper layer of the medium: 30% of the upper layer
Description: Mouse sperm were incubated in a medium (500 μL) prepared by adding albumin and a TLR7 ligand to an embryo culture medium (HTF) at 37° C., 5% CO2 for 1 hour. The TLR7 ligand used was Resiquimod R-848 (hereinafter referred to as R-848). The content of R-848 was 0.3 μM. After 30 minutes, the media were centrifuged using a centrifuge (product name: Tabletop Micro Refrigerated Centrifuge Model 3520, produced by KUBOTA Corporation Co., Ltd.) at 37° C. for 30 minutes. The centrifugation was at a centrifugal force of 50×g, 100×g, or 500×g. For comparison, a system without centrifugation (0×g) was also prepared. After centrifugation, 150 μL of the upper layer (30% of the upper layer) of each of the media was collected, and the percentages of X-sperm and Y-sperm in each of the media were determined in the same manner as described above. In addition, 150 μL of the lower layer (30% of the lower layer) of each of the media was collected, and the percentages of X-sperm and Y-sperm in each of the media were determined in the same manner as described above.

mouse sperm [3] = experiment: Mouse in vitro fertilization with washed floating sperm; XX/XY chromosomes of embryos; conditions: floating sperm from 0.3 μM treatment group
Description: The floating sperm in the non-treatment group and 0.3 μM treatment group were washed, and then subjected to in vitro fertilization. The percentage of in vitro fertilization embryo bearing XX chromosomes or XY chromosomes was determined.

mouse sperm [4] = experiment: Percentages of X-sperm and Y-sperm in floating mouse sperm by real-time PCR; conditions: 0.3 μM treatment group
Description: Mouse sperm were incubated in a medium prepared by adding albumin and a TLR7 ligand to an embryo culture medium (HTF) at 37° C., 5% CO2 for 1 hour. The TLR7 ligand used was Resiquimod R-848 (hereinafter referred to as R-848). The content of R-848 was 0 μM, 0.003 μM, 0.03 μM, 0.3 μM, 1.5 μM, or 3 μM. The sperm floating in the upper layer were collected, and DNA was extracted. Then, the percentages of X chromosome-bearing sperm (hereinafter referred to as X-sperm) and Y chromosome-bearing sperm (hereinafter referred to as Y-sperm) were determined by real-time PCR (polymerase chain reaction).

mouse sperm [5] = experiment: Mouse in vitro fertilization with upper and lower layer sperm separated at 50×g; 2-cell, blastocyst embryo, XX/XY chromosomes; conditions: for 2-cell (%), (number of 2-cell/number of eggs)×100 / Blastocyst embryo (%), (number of blastocyst embryos/number of 2-cell)×100 / Blastocyst embryo (number) / XX chromosomes (%) of blastocyst embryos / XX chromosomes (number) of blastocyst embryos / XY chromosomes (%) of blastocyst embryos / XY chromosomes (number) of blastocyst embryos / 2-cell (number), observed cleavages in 24 hours: R-848 0.3 μM, 50×g
Description: Then, the percentages of blastocyst embryos bearing XX chromosomes or XY chromosomes were determined. In addition, a sperm population obtained by incubating in the same medium as described above at 37° C. for 60 minutes without addition of the TLR7 ligand and without centrifugation (non-treatment group) was subjected to in vitro fertilization in the same manner as described above to form a blastocyst embryo. Then, the percentages of blastocyst embryos bearing XX chromosomes or XY chromosomes were determined. In the column “2-cell” in Table 3, “number” represents number of observed cleavages in 24 hours, while “%” represents “(number of 2-cell/number of eggs)×100.” In the column “blastocyst embryo,” “number” represents number of formed blastocyst embryos, while “%” represents “(number of blastocyst embryos/number of 2-cell)×100.”

pig sperm = experiment: Percentages of X-sperm and Y-sperm in floating pig sperm by real-time PCR; conditions: R-848 0.3 μM, 2 hours
Description: Pig sperm were incubated in a medium prepared by adding cysteine, glycine, and a TLR7 ligand to the Modena solution at 37° C., 5% CO2, 5% O2 for 2 hours. The TLR7 ligand used was R-848. The content of R-848 was 0 μM or 0.3 μM. After collecting the floating sperm in the upper layer and extracting DNA, the percentages of X-sperm and Y-sperm were determined by real-time PCR.

bovine sperm [6] = experiment: Bovine in vitro fertilization with upper layer sperm; fertilization, blastocyst rate and sexing by real-time PCR; conditions: bovine IVF, upper layer sperm from 0.03 μM R-848 treatment group
Description: Bovine in vitro fertilization was performed using the sperm in the upper layer rich in Y-sperm from the 0.03 μM R-848 treatment group. […] Next, sexing of the blastocyst embryos was performed by real-time PCR.

[7] = centrifugation at 100×g or more

CC(C)Cn1cnc2c(N)nc3ccccc3c21 [R-837, imiquimod]
percentage of Y-sperm in floating sperm (bovine sperm [1]; R-837 0.03 to 30 μM treatment groups): ≥ 70%

CCOCc1nc2c(N)nc3ccccc3c2n1CC(C)(C)O [R-848, resiquimod]
percentage of Y-sperm in floating sperm (bovine sperm [1]; R-848 0.03 to 0.3 μM treatment groups): ≥ 90% | percentage of X-sperm in the lower layer of the medium (mouse sperm [2]; 0×g (without centrifugation)): exceeding 60% | percentage of Y-sperm in the upper layer of the medium (mouse sperm [2]; 0×g (without centrifugation)): exceeding 80% | percentage of X-sperm in the lower layer of the medium (mouse sperm [2]; [7]): below 50% | percentage of Y-sperm in the upper layer of the medium (mouse sperm [2]; [7]): about 60% | XX chromosomes (%) of in vitro fertilization embryos (mouse sperm [3]): 13% | XX chromosomes (Number) of in vitro fertilization embryos (mouse sperm [3]; 98 embryos tested): 13 | XY chromosomes (Number) of in vitro fertilization embryos (mouse sperm [3]; 98 embryos tested): 85 | percentage of Y-sperm in floating sperm (mouse sperm [4]): ≥ 80% | effect on the fertilization function of the sperm (mouse sperm [5]; centrifugation on sperm incubated in medium supplemented with TLR7 ligand (R-848 0.3 μM, 50×g) vs non-treatment group): no effect | 2-cell (%), (number of 2-cell/number of eggs)×100 (mouse sperm [5]; lower layer group): 70% | Blastocyst embryo (%), (number of blastocyst embryos/number of 2-cell)×100 (mouse sperm [5]; lower layer group): 70% | Blastocyst embryo (number) (mouse sperm [5]; lower layer group): 48 | XX chromosomes (%) of blastocyst embryos (mouse sperm [5]; lower layer group): 81% | XX chromosomes (number) of blastocyst embryos (mouse sperm [5]; lower layer group): 39 | XY chromosomes (%) of blastocyst embryos (mouse sperm [5]; lower layer group): 19% | XY chromosomes (number) of blastocyst embryos (mouse sperm [5]; lower layer group): 9 | 2-cell (number), observed cleavages in 24 hours (mouse sperm [5]; lower layer group, 99 eggs): 69 | 2-cell (%), (number of 2-cell/number of eggs)×100 (mouse sperm [5]; upper layer group): 79% | Blastocyst embryo (%), (number of blastocyst embryos/number of 2-cell)×100 (mouse sperm [5]; upper layer group): 73% | Blastocyst embryo (number) (mouse sperm [5]; upper layer group): 59 | XX chromosomes (%) of blastocyst embryos (mouse sperm [5]; upper layer group): 10% | XX chromosomes (number) of blastocyst embryos (mouse sperm [5]; upper layer group): 6 | XY chromosomes (%) of blastocyst embryos (mouse sperm [5]; upper layer group): 90% | XY chromosomes (number) of blastocyst embryos (mouse sperm [5]; upper layer group): 53 | 2-cell (number), observed cleavages in 24 hours (mouse sperm [5]; upper layer group, 103 eggs): 81 | percentage of Y-sperm in floating sperm (pig sperm): ≥ 90% | blastocyst embryo transfer rate (bovine sperm [6]): 64.3% | fertilization rate (bovine sperm [6]): 71.7% | male embryos (sexing of blastocyst embryos by real-time PCR) (bovine sperm [6]): 87.8%
